Results reported in patent EP0902088A2, “Peptides with antiproliferative properties” (Radulescu, Razvan T., priority 1996, dated 1999).
“Also recorded” adds a separate entry of the source.

Legend:
MCF-7-Zellen = assay: Cell cycle analysis by FACS in MCF-7 breast carcinoma cells; type: cell-based, human
From the text: Die eine Versuchsanordnung beinhaltet Versuche mit der humanen intaktes Retinoblastomprotein enthaltenden Mammakarzinom-Zell-Linie MCF-7 bzw. der humanen defektes Retinoblastomprotein enthaltenden Osteosarkom-Zell-Linie SAOS-2. Man sät die Zellen zuerst in 12-well-Platten 100.000 (= Hunderttausend) Zellen/-well/ml RPMI oder DMEM/10% FCS) aus, läßt sie 24 Stunden adhärieren, […], und stimuliert sie dann entweder mit 10% FCS oder 10^-8 M IGF-1 oder 10^-6 M Insulin für 24 Stunden, wobei der Effekt der jeweils zugegebenen Peptide auf die jeweilige Stimulation, die ein Maß für die Zellteilungsrate ist, untersucht wird. Die Kontrollgruppe (G0/G1-synchronisierte Zellen) wird zum Zeitpunkt 0 nach der dreitägigen Hungerphase fixiert, die restlichen Zellen (+/- Peptid) werden nach 24 Stunden fixiert. Daraufhin werden die Zellen zwecks Zellzyklusanalyse im FACS analysiert. Analoge Methoden finden sich beispielsweise bei R. Fahraeus et al., Current Biology, 1996, Vol. 6, No. 1, pp 84-91 sowie bei L. Zhu et al., Genes & Development, 1993, Vol. 7, pp. 1111-1125.

[1] = test system: CCRF-CEM/ACT 400resistent-Zellen; assay: Cytotoxicity by trypan blue counting in CCRF-CEM/ACT 400 (resistant) leukaemia cells; type: cell-based; details: asynchronous CCRF-CEM/ACT 400 (resistant) in RPMI with 10 % FCS; peptide 10^-5
From the text: (§1) Die zweite Versuchsanordnung betrifft die Leukämie-Zell-Linien K562 und CCRF-CEM und CCRF-CEM/ACT400. Hierbei wurden jeweils 100.000 asynchrone Zellen/well/ml RPMI/10% FCS für 48 Stunden mit den jeweiligen Peptiden in 6-well-Platten inkubiert. Als Readout gilt die Anzahl der mit Hilfe der Trypanblaufärbung (L.D. Attardi et al., The EMBO Journal, 1996, Vol. 15, No. 14, pp. 3693-3701 und M.K. Reeder & H.C. Isom, Cell Growth & Differentiation, 1996, Vol. 7, pp. 449-460) nach 48 Stunden Inkubationszeit festgestellten toten Zellen/200 ausgezählte Zellen. Je mehr tote Zellen, desto zytotoxischer das Peptid und damit umso effektiver.

CCRF-CEMsensitiv = assay: Cytotoxicity by trypan blue counting in CCRF-CEM (sensitive) leukaemia cells; type: cell-based; details: asynchronous CCRF-CEM (sensitive) in RPMI with 10 % FCS; peptide 10^-5
From the text: as §1

SAOS-2-Zellen = assay: Cell cycle analysis by FACS in SAOS-2 osteosarcoma cells; type: cell-based, human
From the text: Die eine Versuchsanordnung beinhaltet Versuche mit der humanen intaktes Retinoblastomprotein enthaltenden Mammakarzinom-Zell-Linie MCF-7 bzw. der humanen defektes Retinoblastomprotein enthaltenden Osteosarkom-Zell-Linie SAOS-2. Man sät die Zellen zuerst in 12-well-Platten 100.000 (= Hunderttausend) Zellen/-well/ml RPMI oder DMEM/10% FCS) aus, läßt sie 24 Stunden adhärieren, hungert sie anschließend 3 Tage in DMEM ohne FCS mit dem Zweck, die Zellen in der G0/G1-Phase zu synchronisieren, und stimuliert sie dann entweder mit 10% FCS oder 10^-8 M IGF-1 oder 10^-6 M Insulin für 24 Stunden, wobei der Effekt der jeweils zugegebenen Peptide auf die jeweilige Stimulation, die ein Maß für die Zellteilungsrate ist, untersucht wird. Die Kontrollgruppe (G0/G1-synchronisierte Zellen) wird zum Zeitpunkt 0 nach der dreitägigen Hungerphase fixiert, die restlichen Zellen (+/- Peptid) werden nach 24 Stunden fixiert. Daraufhin werden die Zellen zwecks Zellzyklusanalyse im FACS analysiert. Analoge Methoden finden sich beispielsweise bei R. Fahraeus et al., Current Biology, 1996, Vol. 6, No. 1, pp 84-91 sowie bei L. Zhu et al., Genes & Development, 1993, Vol. 7, pp. 1111-1125.

K562-Zellen = assay: Cytotoxicity by trypan blue counting in K562 leukaemia cells; type: cell-based; details: asynchronous K562 in RPMI with 10 % FCS, peptide 10^-5M, several time points
From the text: Fig. 13 zeigt, daß der zytotoxische Effekt des erfindungsgemäßen Peptids P3 [10^-5M] auf asynchrone K562-Zellen, die in RPMI-Zellkulturmedium mit 10 % FCS inkubiert wurden, zeitabhängig ist. Die Ergebnisse wurden aufgetragen als lebende mit P3 behandelte Zellen als Prozent der lebenden mit P3 nicht behandelten Zellen. Die Zahl der lebenden Zellen wurde ermittelt, indem man mindestens 200 Zellen mit der Trypanblaumethode zu jedem angegebenen Zeitpunkt auszählte.
as §1

[2] = test system: normale humane mononukleäre Zellen des peripheren Blutes; assay: Effect on normal peripheral blood mononuclear cells; type: cell-based, human; details: peptide 10^-5, 24 h incubation
From the text: Fig. 15 zeigt, daß das erfindungsgemäße Peptid P3 [10^-5] keinen Effekt auf normale humane mononukleäre Zellen des peripheren Blutes hat, unabhängig davon, ob diese sich in einem ruhenden (a) oder aktivierten (b) Zustand befinden. […] Die Inkubation der Zellen mit P3 erfolgte für einen Zeitraum von 24 Stunden.

[3] = MCF-7 stimulated with IGF-1 10^-8M, peptide 10^-5M
[4] = G0/G1-synchronised SAOS-2 cells, serum-free, peptide 10^-5M
[5] = SAOS-2 stimulated with 10 % FS, peptide 10^-5M
[6] = G0/G1-synchronised MCF-7 cells, serum-free, peptide 10^-5M
[7] = MCF-7 stimulated with EGF 10^-8, peptide 10^-5M
[8] = MCF-7 stimulated with Östradiol (E2) 10^-9M, peptide 10^-5M
[9] = asynchronous MCF-7 in DMEM with 10 % FCS, peptide 10^-5M
[10] = MCF-7 stimulated with Insulin 10^-6M, peptide 10^-5M
[11] = SAOS-2 stimulated with 10 % FCS, peptide 5 x 10^-5M

NH2-KVLYFKRQIKIWFQNRRMKWKK-COOH (H-KVLYFKRQIKIWFQNRRMKWKK-OH) [P8]
G1-Phase (MCF-7-Zellen; [3]): Zunahme
G2/M-Phase (MCF-7-Zellen; [3]): Zunahme
Morphologie der behandelten Zellen (MCF-7-Zellen; [3]): entspricht der apoptotischer Zellen
S-Phase (MCF-7-Zellen; [3]): Abnahme

CC(C)C[C@@H](NC(=O)[C@H](NC(=O)[C@H](N)CCCCN)C(C)C)C(=O)N[C@H](Cc1ccc(O)cc1)C(=O)N[C@H](Cc1ccccc1)C(=O)N[C@H](CCCCN)C(=O)NCC(=O)NCC(=O)NCC(=O)NCCCC[C@H](NC(=O)CNC(=O)CNC(=O)CNC(=O)[C@@H](CCCCN)NC(=O)[C@@H](Cc1ccccc1)NC(=O)[C@@H](Cc1ccc(O)cc1)NC(=O)[C@@H](CC(C)C)NC(=O)[C@H](NC(=O)[C@H](N)CCCCN)C(C)C)C(=O)N[C@H](CCCNC(=N)N)C(=O)NCC(=O)NCCCC[C@H](NC(=O)CNC(=O)[C@@H](CCCNC(=N)N)NC(=O)[C@H](CCCCNC(=O)CNC(=O)CNC(=O)CNC(=O)[C@@H](CCCCN)NC(=O)[C@@H](Cc1ccccc1)NC(=O)[C@@H](Cc1ccc(O)cc1)NC(=O)[C@@H](CC(C)C)NC(=O)[C@H](NC(=O)[C@H](N)CCCCN)C(C)C)NC(=O)CNC(=O)CNC(=O)CNC(=O)[C@@H](CCCCN)NC(=O)[C@@H](Cc1ccccc1)NC(=O)[C@@H](Cc1ccc(O)cc1)NC(=O)[C@@H](CC(C)C)NC(=O)[C@H](NC(=O)[C@H](N)CCCCN)C(C)C)C(=O)NCC(=O)O (racemic) [P7s, NH2-[dK-dV-dL-dY-dF-dK-GGG ]4-[lK-dR-G]2-lK-G-COOH]
G1-Phase (MCF-7-Zellen; [3]): Zunahme
G2/M-Phase (MCF-7-Zellen; [3]): Zunahme
Morphologie der behandelten Zellen (MCF-7-Zellen; [3]): entspricht der apoptotischer Zellen
S-Phase (MCF-7-Zellen; [3]): Abnahme

CC(C)C[C@@H](N)C(=O)N[C@H](Cc1ccccc1)C(=O)N[C@H](Cc1ccc(O)cc1)C(=O)N[C@H](CCCCN)C(=O)N[C@H](CCCCN)C(=O)N[C@@H](C(=O)NCC(=O)NCC(=O)NCC(=O)NCCCC[C@H](NC(=O)CNC(=O)CNC(=O)CNC(=O)[C@H](NC(=O)[C@@H](CCCCN)NC(=O)[C@@H](CCCCN)NC(=O)[C@@H](Cc1ccc(O)cc1)NC(=O)[C@@H](Cc1ccccc1)NC(=O)[C@H](N)CC(C)C)C(C)C)C(=O)N[C@H](CCCNC(=N)N)C(=O)NCC(=O)NCCCC[C@H](NC(=O)CNC(=O)[C@@H](CCCNC(=N)N)NC(=O)[C@H](CCCCNC(=O)CNC(=O)CNC(=O)CNC(=O)[C@H](NC(=O)[C@@H](CCCCN)NC(=O)[C@@H](CCCCN)NC(=O)[C@@H](Cc1ccc(O)cc1)NC(=O)[C@@H](Cc1ccccc1)NC(=O)[C@H](N)CC(C)C)C(C)C)NC(=O)CNC(=O)CNC(=O)CNC(=O)[C@H](NC(=O)[C@@H](CCCCN)NC(=O)[C@@H](CCCCN)NC(=O)[C@@H](Cc1ccc(O)cc1)NC(=O)[C@@H](Cc1ccccc1)NC(=O)[C@H](N)CC(C)C)C(C)C)C(=O)NCC(=O)O)C(C)C (racemic) [P3, NH2-[dL-dF-dY-dK-dK-dV-GGG]4-[lK-dR-G]2-lK-G-COOH]
zytotoxischer Effekt [1]: zytotoxisch
zytotoxischer Effekt (CCRF-CEMsensitiv): zytotoxisch
G1-Phase (SAOS-2-Zellen; [4]): vermindert
G2-Phase (SAOS-2-Zellen; [4]): erhöht
Morphologie der behandelten Zellen (SAOS-2-Zellen; [4]): entspricht der apoptotischer Zellen
S-Phase (SAOS-2-Zellen; [4]): erhöht
G1-Phase (SAOS-2-Zellen; [5]): Zunahme
Morphologie der behandelten Zellen (SAOS-2-Zellen; [5]): entspricht der apoptotischer Zellen
S-Phase (SAOS-2-Zellen; [5]): Abnahme
zytotoxische Effekt (lebende mit P3 behandelte Zellen als Prozent der lebenden mit P3 nicht behandelten Zellen) (K562-Zellen): zeitabhängig
G1-Phase (MCF-7-Zellen; [6]): vermindert
Morphologie der behandelten Zellen (MCF-7-Zellen; [6]): entspricht der apoptotischer Zellen
S-Phase (MCF-7-Zellen; [6]): erhöht
G1-Phase (MCF-7-Zellen; [7]): Zunahme
G2-Phase (MCF-7-Zellen; [7]): Zunahme
Morphologie der behandelten Zellen (MCF-7-Zellen; [7]): entspricht der apoptotischer Zellen
S-Phase (MCF-7-Zellen; [7]): Abnahme
Morphologie der behandelten Zellen (MCF-7-Zellen; MCF-7 stimulated with IGF-1 10^-8M, peptide 5 x 10^-6M): entspricht jeweils der apoptotischer Zellen
G1-Phase (MCF-7-Zellen; [3]): Zunahme
G2/M-Phase (MCF-7-Zellen; [3]): Zunahme
Morphologie der behandelten Zellen (MCF-7-Zellen; [3]): entspricht jeweils der apoptotischer Zellen
S-Phase (MCF-7-Zellen; [3]): Abnahme
durch IGF-1 [10^-8M] bedingte Fortschreiten des Zellzyklus (MCF-7-Zellen; MCF-7 stimulated with IGF-1 10^-8M, several peptide concentrations (Fig. 7)): in einer konzentrationsabhängigen Weise blockiert
G1-Phase (MCF-7-Zellen; [8]): Zunahme
G2-Phase (MCF-7-Zellen; [8]): Zunahme
Morphologie der behandelten Zellen (MCF-7-Zellen; [8]): entspricht der apoptotischer Zellen
S-Phase (MCF-7-Zellen; [8]): Abnahme
G1-Phase (MCF-7-Zellen; [9]): vermindert
Morphologie der behandelten Zellen (MCF-7-Zellen; [9]): entspricht der apoptotischer Zellen
S-Phase (MCF-7-Zellen; [9]): erhöht
Effekt auf normale humane mononukleäre Zellen des peripheren Blutes ([2]; activated state (b)): keinen Effekt
morphologische Veränderungen ([2]; resting or activated cells): keine morphologischen Veränderungen
Effekt auf normale humane mononukleäre Zellen des peripheren Blutes ([2]; resting state (a)): keinen Effekt

Penetratin [reference compound]
Bremsen der Zellzyklusprogression von SAOS-2-Zellen (SAOS-2-Zellen; Tab 2, SAOS-2 stimulated with 10 % FCS): nicht
S-Phase (MCF-7-Zellen; [3]): keinen Effekt
S-Phase (MCF-7-Zellen; [10]): keinen Effekt

CC[C@H](C)[C@H](NC(=O)[C@H](CCCCN)NC(=O)[C@@H](NC(=O)[C@H](CCC(N)=O)NC(=O)[C@H](CCCNC(=N)N)NC(=O)[C@@H](NC(=O)[C@H](CCCCN)NC(=O)[C@H](CCCCN)NC(=O)[C@H](Cc1ccc(O)cc1)NC(=O)[C@H](Cc1ccccc1)NC(=O)[C@@H](N)CC(C)C)C(C)C)[C@@H](C)CC)C(=O)N[C@@H](Cc1c[nH]c2ccccc12)C(=O)N[C@@H](Cc1ccccc1)C(=O)N[C@@H](CCC(N)=O)C(=O)N[C@@H](CC(N)=O)C(=O)N[C@@H](CCCNC(=N)N)C(=O)N[C@@H](CCCNC(=N)N)C(=O)N[C@@H](CCSC)C(=O)N[C@@H](CCCCN)C(=O)N[C@@H](Cc1c[nH]c2ccccc12)C(=O)N[C@@H](CCCCN)C(=O)N[C@@H](CCCCN)C(=O)O [P6, NH2-LFYKKVRQIKIWFQNRRMKWKK-COOH]
G1-Phase (SAOS-2-Zellen; [11]): Zunahme
S-Phase (SAOS-2-Zellen; [11]): Abnahme
G1-Phase (MCF-7-Zellen; [6]): vermindert
Morphologie der behandelten Zellen (MCF-7-Zellen; [6]): entspricht der apoptotischer Zellen
S-Phase (MCF-7-Zellen; [6]): steigert
G1-Phase (MCF-7-Zellen; [3]): Zunahme
Morphologie der behandelten Zellen (MCF-7-Zellen; [3]): entspricht der apoptotischer Zellen
S-Phase (MCF-7-Zellen; [3]): Abnahme; also recorded: vermindern
S-Phase (MCF-7-Zellen; [10]): vermindern

H-LFYKKVPKKKRKV-OH [P5, NH2-L-F-Y-K-K-V-P-K-K-K-R-K-V-COOH]
G1-Phase (SAOS-2-Zellen; [11]): Zunahme
S-Phase (SAOS-2-Zellen; [11]): Abnahme
G1-Phase (MCF-7-Zellen; [6]): vermindert
S-Phase (MCF-7-Zellen; [6]): steigert
S-Phase (MCF-7-Zellen; [3]): vermindern
S-Phase (MCF-7-Zellen; [10]): vermindern
